Assay results taken from patent publication US20040235799A1, “Use of a compound with a negatively charged domain of radicals for the treatment of restenosis” (priority 2001, published 2004).

Tested on: Wistar rats
Test: Neointima formation after balloon catheter vessel injury of the carotid artery in rats
Assay type: in vivo
Method: The effects on neointima formation was assessed after inducing vessel injury in rats with a balloon catheter. Neointima formation is an important part in the process of restenosis. Adult mate Wistar rats (250-260 g) were housed under standard conditions and were fed with commercial rat chow and water ad libitum. During the experiment D-myo-inositol-1,2,6-trisphosphate (IP3) was administered via subcutaneously operated osmotic minipumps with a dose level of 1 mg/kg/hr. A control group received saline solution by osmotic minipumps. The animals were anaesthetised with an intraperitoneal injection of ketamine, 100 mg/kg, (MTC Pharmaceuticals, Cambridge, Ontario, Canada) and xylazine, 10 mg/kg (Bayer lnc., Etobicoke, Ontario, Canada). Using a dissecting microscope, the left carotid artery was exposed on the ventral side of the neck via a midline incision. The bifurcation of the carotid artery was located and two ligatures were placed around the external carotid artery, which was then tied off with the distal ligature. After temporarily occluding the internal carotid artery with a vascular clamp, a small incision was made between the two ligatures placed around the external carotid artery to introduce the endothelial denudation device, an inflated […] Fogarty embolectomy catheter (Baxter Healthcare, Buckinghamshire, UK). […]

Structure (SMILES)	Reduction of neointima formation (vs saline control, 1 mg/kg/hr via subcutaneous osmotic minipumps, 14 days post-operatively) [%]	Reduction of neointima formation (vs control, procedure similar to Example 3) [%]
O=P(O)(O)O[C@@H]1[C@H](OP(=O)(O)O)[C@H](O)[C@@H](O)[C@H](O)[C@H]1OP(=O)(O)O [IP3, D-myo-inositol-1,2,6-trisphosphate]	57	–
O=C(Nc1ccccc1)O[C@@H]1[C@@H](OC(=O)Nc2ccccc2)[C@@H](OP(=O)(O)O)[C@@H](OP(=O)(O)O)[C@H](OP(=O)(O)O)[C@H]1OC(=O)Nc1ccccc1 [PP 11-201, D-3,4,5-tri-O-(phenylcarbamoyl) myo-inositol-1,2,6-trisphosphate]	–	62
